According to ChEMBL document CHEMBL6087462, “Cuminaldehyde Potentiates Antiproteolytic Peptide Efficacy via Parallel Pathways of Enhanced Inner Membrane-Damaging Activity and Inhibition of Bacterial Energy Metabolism” (J Med Chem, 2025):
Each block holds one molecule with its values, some of them ahead of it. Active and inactive are the calls of the source. The calls are words filed in the database; no cut-off is given here.

Legend:
Escherichia coli [1] = experiment: Antimicrobial activity against Escherichia coli ATCC 25922 assessed as reduction in microbial growth by CLSI based broth microdilution method; type: functional
Escherichia coli [2] = experiment: Antimicrobial activity against Escherichia coli UB 1005 assessed as reduction in microbial growth by CLSI based broth microdilution method; type: functional
Escherichia coli [3] = experiment: Antimicrobial activity against Escherichia coli K88 assessed as reduction in microbial growth by CLSI based broth microdilution method; type: functional
Escherichia coli [4] = experiment: Antimicrobial activity against Escherichia coli K99 assessed as reduction in microbial growth by CLSI based broth microdilution method; type: functional
Escherichia coli [5] = experiment: Antimicrobial activity against Escherichia coli 078 assessed as reduction in microbial growth by CLSI based broth microdilution method; type: functional
Salmonella typhimurium [6] = experiment: Antimicrobial activity against Salmonella typhimurium ATCC 14028 assessed as reduction in microbial growth by CLSI based broth microdilution method; type: functional, Salmonella enterica subsp. enterica serovar Typhimurium; details: Salmonella enterica
Salmonella typhimurium [7] = experiment: Antimicrobial activity against Salmonella typhimurium ATCC 7731 assessed as reduction in microbial growth by CLSI based broth microdilution method; type: functional, Salmonella enterica subsp. enterica serovar Typhimurium; details: Salmonella enterica
[8] = Antimicrobial activity against Salmonella enterica subsp. enterica serovar Pullorum ATCC 7913 assessed as reduction in microbial growth by CLSI based broth microdilution method; type: functional
Pseudomonas aeruginosa [9] = experiment: Antimicrobial activity against Pseudomonas aeruginosa ATCC 27853 assessed as reduction in microbial growth by CLSI based broth microdilution method; type: functional
Staphylococcus aureus [10] = experiment: Antimicrobial activity against Staphylococcus aureus ATCC 25923 assessed as reduction in microbial growth by CLSI based broth microdilution method; type: functional
Staphylococcus aureus [11] = experiment: Antimicrobial activity against Staphylococcus aureus ATCC 29213 assessed as reduction in microbial growth by CLSI based broth microdilution method; type: functional
[12] = system: Staphylococcus epidermidis; experiment: Antimicrobial activity against Staphylococcus epidermidis ATCC 12228 assessed as reduction in microbial growth by CLSI based broth microdilution method; type: functional
Staphylococcus aureus [13] = experiment: Antimicrobial activity against Staphylococcus aureus 43300 assessed as reduction in microbial growth by CLSI based broth microdilution method; type: functional
Enterococcus faecalis [14] = experiment: Antimicrobial activity against Enterococcus faecalis ATCC 29212 assessed as reduction in microbial growth by CLSI based broth microdilution method; type: functional
Escherichia coli [15] = experiment: Antimicrobial activity against Escherichia coli ATCC 25922 assessed as reduction in microbial growth in presence of Na+; type: functional, organism-based
Escherichia coli [16] = experiment: Antimicrobial activity against Escherichia coli ATCC 25922 assessed as reduction in microbial growth in presence of Ca+; type: functional, organism-based
Escherichia coli [17] = experiment: Bactericidal activity against Escherichia coli K88 at 0.5 times MIC incubated for 24 hrs by time kill assay; type: functional, organism-based
Pseudomonas aeruginosa [18] = experiment: Bactericidal activity against Pseudomonas aeruginosa 27853 at 0.5 times MIC incubated for 24 hrs by time kill assay; type: functional, organism-based
Salmonella typhimurium [19] = experiment: Bactericidal activity against Salmonella typhimurium ATCC 14028 at 0.5 times MIC incubated for 24 hrs by time kill assay; type: functional, organism-based; details: Salmonella enterica subsp. enterica serovar Typhimurium
Klebsiella pneumoniae [20] = experiment: Bactericidal activity against Klebsiella pneumoniae at 0.5 times MIC incubated for 24 hrs by time kill assay; type: functional, organism-based
Acinetobacter baumannii [21] = experiment: Bactericidal activity against Acinetobacter baumannii at 0.5 times MIC incubated for 24 hrs by time kill assay; type: functional, organism-based
Staphylococcus aureus [22] = experiment: Bactericidal activity against Staphylococcus aureus ATCC 25923 at 0.5 times MIC incubated for 24 hrs by time kill assay; type: functional, organism-based
[23] = system: Staphylococcus epidermidis; experiment: Bactericidal activity against Staphylococcus epidermidis ATCC 12228 at 0.5 times MIC incubated for 24 hrs by time kill assay; type: functional, organism-based
Enterococcus faecalis [24] = experiment: Bactericidal activity against Enterococcus faecalis ATCC […] at 0.5 times MIC incubated for 24 hrs by time kill assay; type: functional, organism-based
Streptococcus agalactiae [25] = experiment: Bactericidal activity against Streptococcus agalactiae CICC 10465 at 0.5 times MIC incubated for 24 hrs by time kill assay; type: functional, organism-based
Escherichia coli [26] = experiment: Synergistic bactericidal activity against Escherichia coli K88 at 0.5 times MIC incubated for 24 hrs in presence of cuminaldehyde by time kill assay; type: functional, organism-based
Pseudomonas aeruginosa [27] = experiment: Synergistic bactericidal activity against Pseudomonas aeruginosa 27853 at 0.5 times MIC incubated for 24 hrs in presence of cuminaldehyde by time kill assay; type: functional, organism-based
Salmonella typhimurium [28] = experiment: Synergistic bactericidal activity against Salmonella typhimurium ATCC 14028 at 0.5 times MIC incubated for 24 hrs in presence of cuminaldehyde by time kill assay; type: functional, organism-based; details: Salmonella enterica subsp. enterica serovar Typhimurium
Klebsiella pneumoniae [29] = experiment: Synergistic bactericidal activity against Klebsiella pneumoniae at 0.5 times MIC incubated for 24 hrs in presence of cuminaldehyde by time kill assay; type: functional, organism-based
Acinetobacter baumannii [30] = experiment: Synergistic bactericidal activity against Acinetobacter baumannii at 0.5 times MIC incubated for 24 hrs in presence of cuminaldehyde by time kill assay; type: functional, organism-based
Staphylococcus aureus [31] = experiment: Synergistic bactericidal activity Staphylococcus aureus ATCC 25923 at 0.5 times MIC incubated for 24 hrs in presence of cuminaldehyde by time kill assay; type: functional, organism-based
[32] = system: Staphylococcus epidermidis; experiment: Synergistic bactericidal activity Staphylococcus epidermidis ATCC 12228 at 0.5 times MIC incubated for 24 hrs in presence of cuminaldehyde by time kill assay; type: functional, organism-based
Enterococcus faecalis [33] = experiment: Synergistic bactericidal activity Enterococcus faecalis ATCC 29212 at 0.5 times MIC incubated for 24 hrs in presence of cuminaldehyde by time kill assay; type: functional, organism-based
Streptococcus agalactiae [34] = experiment: Synergistic bactericidal activity Streptococcus agalactiae CICC 10465 at 0.5 times MIC incubated for 24 hrs in presence of cuminaldehyde by time kill assay; type: functional, organism-based
Escherichia coli [35] = experiment: Antimicrobial activity against Escherichia coli ATCC 25922 assessed as reduction in microbial growth in presence of Mg+; type: functional, organism-based
Escherichia coli [36] = experiment: Antimicrobial activity against Escherichia coli ATCC 25922 assessed as reduction in microbial growth in presence of SGF; type: functional, organism-based
Escherichia coli [37] = experiment: Antimicrobial activity against Escherichia coli ATCC 25922 assessed as reduction in microbial growth in presence of SIF; type: functional, organism-based
Escherichia coli [38] = experiment: Antimicrobial activity against Escherichia coli ATCC 25922 assessed as reduction in microbial growth in presence of LPS; type: functional, organism-based
Cell membrane [39] = experiment: Induction of outer membrane permeabilization in Escherichia coli ATCC 25922 by NPN-dye based assay; type: subcellular
Cell membrane [40] = experiment: Induction of outer membrane permeabilization in Escherichia coli ATCC 25922 in presence of cuminaldehyde by NPN-dye based assay; type: subcellular
Cell membrane [41] = experiment: Induction of cytoplasmic membrane depolarization in Escherichia coli ATCC 25922 by DiSC3(5) dye-based fluorescence assay; type: subcellular
Cell membrane [42] = experiment: Induction of cytoplasmic membrane depolarization in Escherichia coli ATCC 25922 assessed as increase in fluorescence intensity in presence of cuminaldehyde by DiSC3(5) dye-based fluorescence assay
Escherichia coli [43] = experiment: Induction of ROS accumulation in Escherichia coli ATCC 25922 at 0.5 to 1 time MIC; type: functional, organism-based
Escherichia coli [44] = experiment: Induction of ROS accumulation in Escherichia coli ATCC 25922 at 0.5 to 1 time MIC in presence of cuminaldehyde; type: functional, organism-based
Escherichia coli [45] = experiment: Upregulation of intracellular ATP level in Escherichia coli ATCC 25922 at 0.5 to 1 times MIC; type: functional, organism-based
Escherichia coli [46] = experiment: Upregulation of intracellular ATP level in Escherichia coli ATCC 25922 at 0.5 to 1 times MIC in presence of cuminaldehyde; type: functional, organism-based
Escherichia coli [47] = experiment: Antibacterial activity against Escherichia coli infected in K88-induced enteritis mouse model assessed as reduction in diarrhea score at 50 mg/kg, ip administered every 12 hrs for 2 days; type: functional, organism-based; details: time 2.0 day
Escherichia coli [48] = experiment: Antibacterial activity against Escherichia coli infected in K88-induced enteritis mouse model assessed as reduction in number of colonies in ileum at 50 mg/kg, ip administered every 12 hrs for 2 days; type: functional, organism-based; details: time 2.0 day
Escherichia coli [49] = experiment: Antibacterial activity against Escherichia coli infected in K88-induced enteritis mouse model assessed as reduction in number of colonies in colon at 50 mg/kg, ip administered every 12 hrs for 2 days; type: functional, organism-based; details: time 2.0 day
Escherichia coli [50] = experiment: Antibacterial activity against Escherichia coli infected in K88-induced enteritis mouse model assessed as reduction in number of colonies in feces at 50 mg/kg, ip administered every 12 hrs for 2 days; type: functional, organism-based; details: time 2.0 day
Mus musculus [51] = species: Mus musculus; experiment: Anti-inflammatory activity in ETEC-induced enteritis mouse model assessed as decrease in IL-6 level in colon by ELISA analysis; type: functional, organism-based
Mus musculus [52] = species: Mus musculus; experiment: Anti-inflammatory activity in ETEC-induced enteritis mouse model assessed as decrease in TNF-alpha level in colon by ELISA analysis; type: functional, organism-based
Mus musculus [53] = species: Mus musculus; experiment: Anti-inflammatory activity in ETEC-induced enteritis mouse model assessed as decrease in IL-1beta level in colon by ELISA analysis; type: functional, organism-based
Mus musculus [54] = species: Mus musculus; experiment: Anti-inflammatory activity in ETEC-induced enteritis mouse model assessed as structural changes in intestine by H and E staining based analysis; type: functional, organism-based

SMILES: Cc1ccc(C(C)C)cc1O [CARVACROL]
MIC (Escherichia coli [1]): 256 µg/mL
MIC (Escherichia coli [2]): 256 µg/mL
MIC (Escherichia coli [3]): 256 µg/mL
MIC (Escherichia coli [4]): 128 µg/mL
MIC (Escherichia coli [5]): 128 µg/mL
MIC (Salmonella typhimurium [6]): 128 µg/mL
MIC (Salmonella typhimurium [7]): 128 µg/mL
MIC [8]: 128 µg/mL
MIC (Pseudomonas aeruginosa [9]): 128 µg/mL
MIC (Staphylococcus aureus [10]): 128 µg/mL
MIC (Staphylococcus aureus [11]): 128 µg/mL
MIC [12]: 128 µg/mL
MIC (Staphylococcus aureus [13]): 256 µg/mL
MIC (Enterococcus faecalis [14]): 256 µg/mL

SMILES: CC[C@H](C)[C@H](NC(=O)[C@@H](NC(=O)[C@@H](CCCNC(=N)N)NC(=O)[C@H](C)NC(=O)[C@H](C)NC(=O)C(N)Cc1cccc2ccccc12)[C@@H](C)CC)C(=O)N[C@@H](CC(C)C)C(=O)N[C@H](CCCNC(=N)N)C(=O)N[C@@H](Cc1c[nH]c2ccccc12)C(=O)N[C@H](CCCNC(=N)N)C(=O)N[C@@H](Cc1ccccc1)C(=O)N[C@@H](CCCNC(=N)N)C(=O)O (some centres not stated)
Activity (Escherichia coli [15]): Active
Activity (Escherichia coli [16]): Active
Activity (Escherichia coli [17]): Active
Activity (Pseudomonas aeruginosa [18]): Active
Activity (Salmonella typhimurium [19]): Active
Activity (Klebsiella pneumoniae [20]): Active
Activity (Acinetobacter baumannii [21]): Active
Activity (Staphylococcus aureus [22]): Active
Activity [23]: Active
Activity (Enterococcus faecalis [24]): Active
Activity (Streptococcus agalactiae [25]): Active
Activity (Escherichia coli [26]): Active
Activity (Pseudomonas aeruginosa [27]): Active
Activity (Salmonella typhimurium [28]): Active
Activity (Klebsiella pneumoniae [29]): Active
Activity (Acinetobacter baumannii [30]): Active
Activity (Staphylococcus aureus [31]): Active
Activity [32]: Active
Activity (Enterococcus faecalis [33]): Active
Activity (Streptococcus agalactiae [34]): Active
Activity (Escherichia coli [35]): Active
Activity (Escherichia coli [36]): Active
Activity (Escherichia coli [37]): Active
Activity (Escherichia coli [38]): Active
Activity (Cell membrane [39]): inactive
Activity (Cell membrane [40]): Active
Activity (Cell membrane [41]): Dose-dependent-effect
Activity (Cell membrane [42]): Active
Activity (Escherichia coli [43]): Active
Activity (Escherichia coli [44]): Active
Activity (Escherichia coli [45]): Active
Activity (Escherichia coli [46]): Active
Activity (Escherichia coli [47]): Active
Activity (Escherichia coli [48]): Active
Activity (Escherichia coli [49]): Active
Activity (Escherichia coli [50]): Active
Activity (Mus musculus [51]): Active
Activity (Mus musculus [52]): Active
Activity (Mus musculus [53]): Active
Activity (Mus musculus [54]): Active

SMILES: C=C(C)C1CC=C(C=O)CC1 (configuration not stated) [PERILLALDEHYDE]
MIC (Escherichia coli [1]): 16400 µg/mL
MIC (Escherichia coli [2]): 16400 µg/mL
MIC (Escherichia coli [3]): 8190 µg/mL
MIC (Escherichia coli [4]): 16400 µg/mL
MIC (Escherichia coli [5]): 16400 µg/mL
MIC (Salmonella typhimurium [6]): 16400 µg/mL
MIC (Salmonella typhimurium [7]): 16400 µg/mL
MIC [8]: 16400 µg/mL
MIC (Pseudomonas aeruginosa [9]): 1230 µg/mL
MIC (Staphylococcus aureus [10]): 1230 µg/mL
MIC (Staphylococcus aureus [11]): 2050 µg/mL
MIC [12]: 256 µg/mL
MIC (Staphylococcus aureus [13]): 512 µg/mL
MIC (Enterococcus faecalis [14]): 512 µg/mL

MIC (Escherichia coli [1]): 8190 µg/mL
MIC (Escherichia coli [2]): 16400 µg/mL
MIC (Escherichia coli [3]): 16400 µg/mL
MIC (Escherichia coli [4]): 8190 µg/mL
MIC (Escherichia coli [5]): 16400 µg/mL
MIC (Salmonella typhimurium [6]): 8190 µg/mL
MIC (Salmonella typhimurium [7]): 8190 µg/mL
MIC [8]: 8190 µg/mL
MIC (Pseudomonas aeruginosa [9]): 8190 µg/mL
MIC (Staphylococcus aureus [10]): 8190 µg/mL
MIC (Staphylococcus aureus [11]): 4100 µg/mL
MIC [12]: 8190 µg/mL
MIC (Staphylococcus aureus [13]): 2050 µg/mL
MIC (Enterococcus faecalis [14]): 2050 µg/mL
SMILES: CC(C)c1ccc(C=O)cc1 [CUMINALDEHYDE]
